Data reported in patent publication US12227495B2, “Herbicidal compounds” (SYNGENTA CROP PROTECTION AG, priority 2018, dated 2025).

Experiments:
Type in all cases: in vivo
[1] = tested on: Amaranthus retoflexus (AMARE); test: Pre-emergence herbicide test, glasshouse, percentage damage; conditions: rate 1000 g/ha, evaluated after 13 days
Summary of the method: (§1)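 Compounds are applied as aqueous sprays at 500 g/ha, unless otherwise stated, either one day after sowing or to 8-day-old plants. Injury is assessed after 13 days and expressed on a 1-5 scale, where 5 means 81-100% damage.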

[2] = tested on: Ipomoea hederacea (IPOHE); test: as above; conditions: rate 1000 g/ha, evaluated after 13 days
Summary of the method: as §1

[3] = tested on: Setaria faberi (SETFA); test: as above; conditions: rate 1000 g/ha, evaluated after 13 days
Summary of the method: as §1

[4] = tested on: Lolium perenne (LOLPE); test: as above; conditions: rate 1000 g/ha, evaluated after 13 days
Summary of the method: as §1

[5] = tested on: Solanum nigrum (SOLNI); test: as above; conditions: rate 1000 g/ha, evaluated after 13 days
Summary of the method: as §1

[6] = tested on: Echinochloa crus-galli (ECHCG); test: as above; conditions: rate 1000 g/ha, evaluated after 13 days
Summary of the method: as §1

[7] = tested on: Amaranthus retoflexus (AMARE); test: Post-emergence herbicide test, glasshouse, percentage damage; conditions: 1000 g/ha, evaluated after 13 days
Summary of the method: as §1

[8] = tested on: Ipomoea hederacea (IPOHE); test: as above; conditions: 1000 g/ha, evaluated after 13 days
Summary of the method: as §1

[9] = tested on: Setaria faberi (SETFA); test: as above; conditions: 1000 g/ha, evaluated after 13 days
Summary of the method: as §1

[10] = tested on: Lolium perenne (LOLPE); test: as above; conditions: 1000 g/ha, evaluated after 13 days
Summary of the method: as §1

[11] = tested on: Solanum nigrum (SOLNI); test: as above; conditions: 1000 g/ha, evaluated after 13 days
Summary of the method: as §1

[12] = tested on: Echinochloa crus-galli (ECHCG); test: as above; conditions: 1000 g/ha, evaluated after 13 days
Summary of the method: as §1

| SMILES | Pre-emergence Test AMARE percentage damage (five point scale) [1] | Pre-emergence Test IPOHE percentage damage (five point scale) [2] | Pre-emergence Test SETFA percentage damage (five point scale) [3] | Pre-emergence Test LOLPE percentage damage (five point scale) [4] | Pre-emergence Test SOLNI percentage damage (five point scale) [5] | Pre-emergence Test ECHCG percentage damage (five point scale) [6] | percentage damage caused to the plant, AMARE [7] | percentage damage caused to the plant, IPOHE [8] | percentage damage caused to the plant, SETFA [9] | percentage damage caused to the plant, LOLPE [10] | percentage damage caused to the plant, SOLNI [11] | percentage damage caused to the plant, ECHCG [12] |
| --- | --- | --- | --- | --- | --- | --- | --- | --- | --- | --- | --- | --- |
| COc1csc(-c2ccccc2Oc2ncc(Cl)cc2F)c1 [Compound A71] | 5 (5=81-100%) | 1 (1=0-20%) | 1 (1=0-20%) | 1 (1=0-20%) | 1 (1=0-20%) | 1 (1=0-20%) | 4 (4=61-80%) | 1 (1=0-20%) | 2 (2=21-40%) | 1 (1=0-20%) | 5 (5=81-100%) | 1 (1=0-20%) |
| O=[N+]([O-])c1cnc(Oc2cccc(F)c2-c2cc(C(F)F)no2)c(F)c1 [Compound A22] | 5 (5=81-100%) | 1 (1=0-20%) | 3 (3=41-60%) | 1 (1=0-20%) | 1 (1=0-20%) | 3 (3=41-60%) | 4 (4=61-80%) | 3 (3=41-60%) | 3 (3=41-60%) | 2 (2=21-40%) | 4 (4=61-80%) | 2 (2=21-40%) |
| N#Cc1cccc(Oc2ncc(Cl)cc2F)c1-c1cc(C(F)F)no1 [Compound A162] | 5 (5=81-100%) | 5 (5=81-100%) | 5 (5=81-100%) | 5 (5=81-100%) | 4 (4=61-80%) | 5 (5=81-100%) | 5 (5=81-100%) | 5 (5=81-100%) | 5 (5=81-100%) | 5 (5=81-100%) | 5 (5=81-100%) | 4 (4=61-80%) |
| O=[N+]([O-])c1ccc(Oc2cccc(Br)c2-c2cc(C(F)F)no2)nc1 [Compound A88] | 5 (5=81-100%) | 1 (1=0-20%) | 5 (5=81-100%) | 4 (4=61-80%) | 4 (4=61-80%) | 5 (5=81-100%) | 5 (5=81-100%) | 2 (2=21-40%) | 4 (4=61-80%) | 3 (3=41-60%) | 4 (4=61-80%) | 4 (4=61-80%) |
| CS(=O)(=O)c1ccc(Oc2cccc(F)c2-c2cc(C(F)F)no2)nc1 [Compound A40] | 2 (2=21-40%) | 1 (1=0-20%) | 1 (1=0-20%) | 1 (1=0-20%) | 1 (1=0-20%) | 1 (1=0-20%) | 3 (3=41-60%) | 1 (1=0-20%) | 1 (1=0-20%) | 1 (1=0-20%) | 4 (4=61-80%) | 1 (1=0-20%) |
